Where two headings read alike, the source gives them in different places.
Target: hT2R8 (Homo sapiens (Human), UniProt Q9NYW2)
Assay: hT2R8 antagonist high-throughput FLIPR assay, stable cell line with G16g44, agonist andrographolide
Format: cell-based
Text: After a ligand is identified for a particular hT2R, a HEK293 cell line stably expressing both the hT2R and G16gust44 are generated, facilitating future screening assays to identify other ligands that activate the particular hT2R or which modulate (block or enhance) the activation of this hT2R by another bitter ligand such as a bitter compound contained in coffee. This avoids the need for transient transfection.
(§1) To identify antagonists, cell lines stably expressing hT2R8 and hT2R14, respectively, together with the promiscuous chimeric G16g44 protein were generated as described in previous patent applications. A high-throughput assay was established using the stable cell lines and FLIPR (Fluorescent Imaging Plate Reader). An agonist of hT2R8 or hT2R14 was used to activate the receptors up to 70-80% of their respective maximal activity. For hT2R8, the agonist used was andrographolide (200 λM); for hT2R14, it was aristolochic acid (3 μM). To identify antagonists, compounds with diverse chemical structures were added together with the agonist.
as §1, with “hT2R8” for “hT2R8 and hT2R14, respectively,”, “hT2R8” for “hT2R8 or hT2R14”, “(200” for “(200 λM); for hT2R14, it was aristolochic acid (3”

[1] = read-out: IC50 on hT2R8 bitter receptor
[2] = table after Example 10-97, read-out: hT2R8 IC50

hT2R8, sequence (Q9NYW2 whole entry): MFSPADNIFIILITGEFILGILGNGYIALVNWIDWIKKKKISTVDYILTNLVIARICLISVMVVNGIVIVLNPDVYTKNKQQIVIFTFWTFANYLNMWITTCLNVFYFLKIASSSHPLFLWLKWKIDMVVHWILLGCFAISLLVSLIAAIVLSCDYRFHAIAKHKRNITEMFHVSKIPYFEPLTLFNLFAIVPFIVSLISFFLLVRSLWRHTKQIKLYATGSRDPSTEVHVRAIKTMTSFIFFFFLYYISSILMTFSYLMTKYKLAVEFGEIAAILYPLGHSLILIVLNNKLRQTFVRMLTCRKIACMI

Row | IC50 (Table A, read-out: hT2R8 IC50) [nM] | IC50 [1] [nM] | IC50 [2] [nM] | Compound
1 | 100 |  |  | Cc1noc(C)c1Cn1cc(NC(=O)c2cc3c(cc2Cl)OCCO3)cn1 [Example 4-90, 7-chloro-N-(1-((3,5-dimethylisoxazol-4-yl)methyl)-1H-pyrazol-4-yl)-2,3-dihydrobenzo[b][1,4]dioxine-6-carboxamide]
2 | 100 |  |  | Cc1noc(C)c1Cn1cc(NC(=O)c2cc(Cl)c3c(c2)OCCO3)cn1 [Example 4-91, 8-chloro-N-(1-((3,5-dimethylisoxazol-4-yl)methyl)-1H-pyrazol-4-yl)-2,3-dihydrobenzo[b][1,4]dioxine-6-carboxamide]
3 |  | 700 |  | COc1cc(C(=O)Nc2cnn(Cc3c(C)noc3C)c2)cc2c1OCO2 [Example 4-92, N-(1-((3,5-dimethylisoxazol-4-yl)methyl)-1H-pyrazol-4-yl)-7-methoxybenzo[d][1,3]dioxole-5-carboxamide]
4 |  | 700 |  | COc1cc(C(=O)Nc2cnn(Cc3c(C)noc3C)c2)cc2c1OCCO2 [Example 4-93, N-(1-((3,5-dimethylisoxazol-4-yl)methyl)-1H-pyrazol-4-yl)-8-methoxy-2,3-dihydrobenzo[b][1,4]dioxine-6-carboxamide]
5 |  | 700 |  | COc1cc(C(=O)Nc2cnn(Cc3c(C)noc3C)c2)cc2c1OC(C)O2 (stereo not drawn) [Example 4-94, N-(1-((3,5-dimethylisoxazol-4-yl)methyl)-1H-pyrazol-4-yl)-7-methoxy-2-methylbenzo[d][1,3]dioxole-5-carboxamide]
6 |  | 700 |  | COc1cc2c(cc1C(=O)Nc1cnn(Cc3c(C)noc3C)c1)OCCO2 [Example 4-95, N-(1-((3,5-dimethylisoxazol-4-yl)methyl)-1H-pyrazol-4-yl)-7-methoxy-2,3-dihydrobenzo[b][1,4]dioxine-6-carboxamide]
7 | 8760 |  |  | CNc1cnn(Cc2c(C)noc2C)c1 [Example 4-96, 1-((3,5-dimethylisoxazol-4-yl)methyl)-N-methyl-1H-pyrazol-4-amine]
8 | 2130 |  |  | Cc1noc(C)c1Cn1cc(N(C)C(=O)C(C)c2ccccc2)cn1 (stereo not drawn) [Example 4-97, N-(1-((3,5-dimethylisoxazol-4-yl)methyl)-1H-pyrazol-4-yl)-N-methyl-2-phenylpropanamide]
9 | 2810 |  |  | Cc1noc(C)c1Cn1cc(N(C)C(=O)[C@@H](C)c2ccccc2)cn1 [Example 4-98, (S)-N-(1-((3,5-dimethylisoxazol-4-yl)methyl)-1H-pyrazol-4-yl)-N-methyl-2-phenylpropanamide]
10 | 1360 |  |  | Cc1noc(C)c1Cn1cc(NS(=O)(=O)c2ccccc2C#N)cn1 [Example 4-99, 2-cyano-N-(1-((3,5-dimethylisoxazol-4-yl)methyl)-1H-pyrazol-4-yl)benzenesulfonamide]
11 | 8510 |  |  | Cc1noc(C)c1Cn1cc(NS(=O)(=O)c2ccccc2F)cn1 [Example 4-100, N-(1-((3,5-dimethylisoxazol-4-yl)methyl)-1H-pyrazol-4-yl)-2-fluorobenzenesulfonamide]
12 | 1630 |  |  | COc1ccc(OC)c(S(=O)(=O)Nc2cnn(Cc3c(C)noc3C)c2)c1 [Example 4-101, N-(1-((3,5-dimethylisoxazol-4-yl)methyl)-1H-pyrazol-4-yl)-2,5-dimethoxybenzenesulfonamide]
13 | 2150 |  |  | Cc1ccccc1S(=O)(=O)Nc1cnn(Cc2c(C)noc2C)c1 [Example 4-102, N-(1-((3,5-dimethylisoxazol-4-yl)methyl)-1H-pyrazol-4-yl)-2-methylbenzenesulfonamide]
14 | 3800 |  |  | COc1ccccc1S(=O)(=O)Nc1cnn(Cc2c(C)noc2C)c1 [Example 4-103, N-(1-((3,5-dimethylisoxazol-4-yl)methyl)-1H-pyrazol-4-yl)-2-methoxybenzenesulfonamide]
15 | 1250 |  |  | COC(=O)c1sccc1S(=O)(=O)Nc1cnn(Cc2c(C)noc2C)c1 [Example 4-104, methyl 3-(N-(1-((3,5-dimethylisoxazol-4-yl)methyl)-1H-pyrazol-4-yl)sulfamoyl)thiophene-2-carboxylate]
16 | 1630 |  |  | Cc1noc(C)c1Cn1cc(NC(=S)Nc2ccccc2F)cn1 [Example 4-105, 1-(1-((3,5-dimethylisoxazol-4-yl)methyl)-1H-pyrazol-4-yl)-3-(2-fluorophenyl)thiourea]
17 | 2610 |  |  | COc1ccccc1NC(=S)Nc1cnn(Cc2c(C)noc2C)c1 [Example 4-106, 1-(1-((3,5-dimethylisoxazol-4-yl)methyl)-1H-pyrazol-4-yl)-3-(2-methoxyphenyl)thiourea]
18 | 3000 |  |  | Cc1noc(C)c1Cn1cc(NC(=S)Nc2cccnc2)cn1 [Example 4-107, 1-(1-((3,5-dimethylisoxazol-4-yl)methyl)-1H-pyrazol-4-yl)-3-(pyridin-3-yl)thiourea]
19 | 3010 |  |  | Cc1ccccc1NC(=S)Nc1cnn(Cc2c(C)noc2C)c1 [Example 4-108, 1-(1-((3,5-dimethylisoxazol-4-yl)methyl)-1H-pyrazol-4-yl)-3-o-tolylthiourea]

Row | IC50 (Table A, read-out: hT2R8 IC50) [nM] | IC50 [1] [nM] | IC50 [2] [nM] | Compound
20 | 783 |  |  | Cc1noc(C)c1Cn1cc(NC(=S)Nc2cccc(C#N)c2)cn1 [Example 4-109, 1-(3-cyanophenyl)-3-(1-((3,5-dimethylisoxazol-4-yl)methyl)-1H-pyrazol-4-yl)thiourea]
21 | 1100 |  |  | Cc1noc(C)c1Cn1cc(NC(=S)NCc2ccccc2)cn1 [Example 4-110, 1-benzyl-3-(1-((3,5-dimethylisoxazol-4-yl)methyl)-1H-pyrazol-4-yl)thiourea]
22 | 2350 |  |  | Cc1noc(C)c1Cn1cc(NC(=S)Nc2ccccc2C#N)cn1 [Example 4-111, 1-(2-cyanophenyl)-3-(1-((3,5-dimethylisoxazol-4-yl)methyl)-1H-pyrazol-4-yl)thiourea]
23 | 2490 |  |  | Cc1noc(C)c1Cn1cc(NC(=S)Nc2ccccc2)cn1 [Example 4-112, 1-(1-((3,5-dimethylisoxazol-4-yl)methyl)-1H-pyrazol-4-yl)-3-phenylthiourea]
24 | 5240 |  |  | COc1ccc(OC)c(NC(=S)Nc2cnn(Cc3c(C)noc3C)c2)c1 [Example 4-113, 1-(2,5-dimethoxyphenyl)-3-(1-((3,5-dimethylisoxazol-4-yl)methyl)-1H-pyrazol-4-yl)thiourea]
25 | 1870 |  |  | COc1cccc(C(=O)Nc2nnn(Cc3c(C)noc3C)n2)c1 [Example 4-114, N-(2-((3,5-dimethylisoxazol-4-yl)methyl)-2H-tetrazol-5-yl)-3-methoxybenzamide]
26 | 9250 |  |  | COc1cccc(C(=O)Nc2cn(Cc3c(C)noc3C)nc2C)c1 [Example 4-115, N-(1-((3,5-dimethylisoxazol-4-yl)methyl)-3-methyl-1H-pyrazol-4-yl)-3-methoxybenzamide]
27 | 2280 |  |  | Cc1noc(C)c1Cn1cc(C(=O)NCc2cccs2)sc1=O [Example 4-116, 3-((3,5-dimethylisoxazol-4-yl)methyl)-2-oxo-N-(thiophen-2-ylmethyl)-2,3-dihydrothiazole-5-carboxamide]
28 |  | > 30000 |  | Cc1noc(C)c1Cn1cc(NCc2ccccc2C#N)cn1 [Example 9-2, 2-((1-((3,5-dimethylisoxazol-4-yl)methyl)-1H-pyrazol-4-ylamino)methyl)benzonitrile]
29 |  | 11000 |  | Cc1noc(C)c1Cn1cc(N2Cc3ccccc3C2=O)cn1 [Example 9-3, 2-(1-((3,5-dimethylisoxazol-4-yl)methyl)-1H-pyrazol-4-yl) isoindolin-1-One]
30 |  | 1500 |  | Cc1noc(C)c1Cn1cc(-n2c(=O)[nH]c3ccccc3c2=O)cn1 [Example 9-4, 3-(1-((3,5-dimethylisoxazol-4-yl)methyl)-1H-pyrazol-4-yl)quinazoline-2,4(1H,3H)-dione]
31 |  |  | 3430 | Cc1noc(C)c1Cn1cc(N2CCCN(Cc3ccccc3)C2=O)cn1 [Example 9-5]
32 |  | 5840 | 6030 | Cc1noc(C)c1Cn1cc(N2CNCN(Cc3ccccc3)C2=O)cn1 [Example 9-6, 1-benzyl-3-(1-((3,5-dimethylisoxazol-4-yl)methyl)-1H-pyrazol-4-yl)-1,3,5-triazinan-2-one]
33 |  | 2640 | 6580 | Cc1noc(C)c1Cn1cc(N2CN(Cc3ccccc3)CN(CCc3ccccc3)C2=O)cn1 [Example 9-7, 5-benzyl-1-(1-((3,5-dimethylisoxazol-4-yl)methyl)-1H-pyrazol-4-yl)-3-phenethyl-1,3,5-triazinan-2-one]
34 |  | 3030 | 6150 | Cc1noc(C)c1Cn1cc(-n2c(=O)[nH]c(=O)n(CCc3ccccc3)c2=O)cn1 [Example 9-8, 1-(1-((3,5-dimethylisoxazol-4-yl)methyl)-1H-pyrazol-4-yl)-3-phenethyl-1,3,5-triazinane-2,4,6-trione]
35 |  | 1140 | 1560 | Cc1noc(C)c1Cn1cc(-n2c(=O)[nH]c(=O)n(Cc3ccccc3)c2=O)cn1 [Example 9-9, 1-benzyl-3-(1-((3,5-dimethylisoxazol-4-yl)methyl)-1H-pyrazol-4-yl)-1,3,5-triazinane-2,4,6-trione]
36 |  | 1700 | 1700 | Cc1noc(C)c1Cn1cc(N2C(=O)CNC2=O)cn1 [Example 10-1, 3-(1-((3,5-dimethylisoxazol-4-yl)methyl)-1H-pyrazol-4-yl)imidazolidine-2,4-dione]
37 |  |  | 113 | Cc1noc(C)c1Cn1cc(N2C(=O)N[C@@H](Cc3ccccc3)C2=O)cn1 [Example 10-3, (S)-5-benzyl-3-(1-((3,5-dimethylisoxazol-4-yl)methyl)-1H-pyrazol-4-yl)imidazolidine-2,4-dione]

Source: US9247759B2, “Identification of human T2R receptors that respond to bitter compounds that elicit the bitter taste in compositions, and the use thereof in assays to identify compounds that inhibit (block) bitter taste in compositions and use thereof” (SENOMYX, INC., priority 2007, dated 2016)
